The test system of experiment [1] is HeLa (cervical adenocarcinoma) cells. Description: Cell viability IC50 (Table 3). It counts as cell-based, human. How it is done: (§1) To date, 30 variants with different structural modifications have been made. […] In particular, it is shown that C75 causes death in multiple cancer cells with IC50 values in the 100-400 nM range, including breast cancers (MCF7, BT549), lung cancer (A549), colorectal cancer (HCT116) in addition to HeLa cells (cervical cancer).

In experiment [2] the test system is A549 cells. Briefly: IC50 of derivatives (Table 5). The following applies: for IC50: Table 5, cell line only named in b213 (A549). It counts as cell-based, human.
For experiment [3], the system named is A549 cells. Briefly: Spindle morphology, DAPI and tubulin staining. It counts as cell-based, human. Conditions: 300 nM, 4 hours. How it is done:
FIG. 1A) is a line graph showing changes in the percentage of viable HFF-1, HeLa, A549 and HCT 116 cells after treatment with a range of C75 concentrations for 3 population doubling times (N=3). […] FIG. 1C) is a line graph showing the percentage of HeLa and HFF1 cells in mitosis after treatment with various concentrations of C75 for 8 hours. The bars indicate standard deviation. FIG. 1D) is a series of images showing cells that were fixed and co-stained for tubulin (microtubules) and DAPI (DNA). […] The scale bar for the cells is 10 μm. […] FIG. 1F) is a cartoon schematic showing the key features of a metaphase cell.

Experiment [4] relates to MCF7, BT549, A549, HCT116, HeLa cells. Description: Viability in cancer vs non-cancer cell lines, summary of Table 3. It counts as cell-based, human. How it is done:
as §1

A further experiment concerns HCT116 spheroids. Description: Multicellular tumour spheroids. Conditions: 10 nM paclitaxel or 250 nM C75 alone, 6 days. The class given is cell-based. The protocol: FIGS. 5A, 5B, 5C, 5D, 5E, 5F, 5G, 5H, 5I, 5J, 5K, 5L and 5M show how C75 disrupts or reduces the growth of HeLa, HCT116 and A549 spheroids. FIG. 5A) images show HeLa spheroids over time (3 days) before and after treatment with control (1 μM C87; n=10), 250 nM (n=6) or 500 nM (n=10) of C75. The scale bar is 100 μm. FIG. 5B) is a series images of HeLa spheroids after three days of treatment with control (500 nM C87) or 500 nM C75. The spheroids were stained for fluorescein diacetate (to detect live cells) and propidium iodide (to detect dead cells). […] The scale bar is 100 μm. FIG. 5C) is a line graph showing the change in spheroid area (μm^2) for each day and treatment as indicated. Bars show standard deviation and the asterisks are p<0.05 as determined by the student's t test. FIG. 5D) images show HeLa spheroids over 3 days before and after treatment with empty nanoparticles (control; n=3) or 250 nM of nanoparticle-encapsulated C75 (n=3). The scale bar is 100 μm. […] Bars show standard deviation and the asterisks are p<0.05 as determined by the student's t test. FIG. 5F) is a series of images of HCT116 spheroids treated with control (1 μM C87; n=10), 500 nM C75 (n=10) and 1 μM C75 (n=10). FIG. 5G) is a series images of HCT116 spheroids after six days of treatment with control (1 μM C87) or 1 μM C75. The spheroids were stained for fluorescein diacetate (live cells) and propidium iodide (dead cells). […] FIG. 5H) is a line graph showing the growth in surface area (%) of HCT116 spheroids treated with control (1 μM C87), 500 nM C75 and 1 μM C75 after six days. FIG. 5I) is a series of images of A549 spheroids treated with control (1 μM C87, n=6), 500 nM C75 (n=6), and 1 μM C75 (n=6) over 5 days. The scale bar is 100 μm. FIG. 5J) is a series of images of A549 spheroids after six days of treatment with control (750 nM C87) or 1 μM C75. The spheroids were stained for fluorescein diacetate (live cells) and propidium iodide (dead cells). […] Bars show standard deviation and the asterisks are p<0.05 as determined by the student's t test. FIG. 5L) images show A549 spheroids over 6 days before and after treatment with empty nanoparticles (control; n=3) or 500 nM of nanoparticle-encapsulated C75 (n=3). The scale bar is 100 μm. […] Bars show standard deviation and the asterisks are p<0.05 as determined by the student's t test.
FIG. 11A) is a series of images of HCT116 spheroids treated with control (DMSO), 10 nM paclitaxel, 250 nM C75 or both for 6 days. […] The scale bar for the images is 100 μm. […] As shown in the images, adding paclitaxel and C75 in combination led to regression in spheroid size compared to each treatment on its own.
The thienoisoquinoline compounds may also have potential for use in combinatorial therapies. […]

A value given as a limit tells only on which side of the number the result lay.

In general, IC50 refers to the concentration at which inhibition is half-maximal. `O=S(=O)(c1ccc(C(F)(F)F)cc1)N1Cc2ccccc2-c2sccc21` [Compound C108]: the half-inhibitory concentration (IC50) (in experiment [1]; with A549 cells [2]) was more than 1000 nM each time. Take `COc1ccc(S(=O)(=O)N2Cc3ccccc3-c3sc(Cl)c(C)c32)cc1` [Compound C128]: it took 549 nM to reach half-maximal inhibition in the experiment with A549 cells [2] (IC50). Consider `COc1ccc(S(=O)(=O)N2Cc3c(Br)ccc(N)c3-c3sc(Br)cc32)cc1` [Compound C133], for which the IC50 with A549 cells [2] was more than 1000 nM. On the same count and under the same terms, the same measure for `COc1ccc(S(=O)(=O)N2Cc3cccc([N+](=O)[O-])c3-c3sccc32)cc1` [Compound C130]: 439 nM. `CC(C)(C)c1ccc(S(=O)(=O)N2Cc3ccccc3-c3sccc32)cc1` [Compound C109]: in the experiment on A549 cells [2], the IC50 is more than 1000 nM.

With `COc1ccc(S(=O)(=O)N2Cc3ccccc3-c3sc(Cl)cc32)cc1` [Compound C208], the results for the IC50 (in experiment [1]; in the experiment on A549 cells [2]) were 204 nM and 434 nM, respectively. For `COc1ccc(S(=O)(=O)N2Cc3cccc([N+](=O)[O-])c3-c3sc(Br)cc32)cc1` [Compound C131], in the experiment with A549 cells [2], the IC50 turned out to be 801 nM. Regarding `COc1ccc(S(=O)(=O)N2Cc3ccccc3-c3sc(C=O)cc32)cc1` [Compound C140], the “efficacy relative to C75” value in the experiment on A549 cells [2] (A549 cells) is on record as “higher efficacy”. In the experiment with A549 cells [2], this compound returned a 50% inhibitory concentration (IC50) of 260 nM. The spindle phenotype result in the experiment with A549 cells [3] is listed as “causes spindle phenotypes similar to C75”. In turn, `COc1ccc(S(=O)(=O)N2Cc3ccccc3-c3scc(C)c32)cc1` [Compound C127] came in with an IC50 with A549 cells [2] of 635 nM.

For the compound `Cc1ccc(S(=O)(=O)N2Cc3ccccc3-c3sc(Br)cc32)cc1` [Compound C74], the IC50 (in experiment [1]; in the experiment with A549 cells [2]) was more than 1000 nM in each case. With `Cc1ccc(S(=O)(=O)N2Cc3ccccc3-c3sccc32)cc1` [Compound C91], the IC50 in the experiment on A549 cells [2] (Homo sapiens) was more than 1000 nM. In addition, the “efficacy (effect on viability) in cancer cells vs. non-cancer cells” value in experiment [4] is on record as “higher efficacy”. For the compound `COc1ccc(S(=O)(=O)N2Cc3ccccc3-c3sc(C=O)c(C)c32)cc1` [Compound C138], the midpoint of inhibition in the experiment on A549 cells [2], the IC50, lay at 416 nM. On the same count and under the same terms, with `COc1ccc(S(=O)(=O)N2Cc3ccccc3-c3sc(Br)c(C)c32)cc1` [Compound C139] the figure was more than 1000 nM. As for `COc1ccc(S(=O)(=O)N2Cc3ccccc3-c3sc(C(=O)O)cc32)cc1` [Compound C141], the IC50 with A549 cells [2] was more than 1000 nM. As for `Cc1cccc(S(=O)(=O)N2Cc3ccccc3-c3sc(Br)cc32)c1` [Compound C93], the IC50 in experiment [1] was more than 1000 nM. With `COc1ccc(S(=O)(=O)N2Cc3cc4c(cc3-c3sc(Br)cc32)OCO4)cc1` [Compound C301], the IC50 in the experiment on A549 cells [2] is more than 1000 nM. As for `O=S(=O)(c1ccc(C(F)(F)F)cc1)N1Cc2ccccc2-c2sc(Br)cc21` [Compound C200], the IC50 (in experiment [1]; with A549 cells [2]) was more than 1000 nM each time. For `CC(C)(C)c1ccc(S(=O)(=O)N2Cc3ccccc3-c3sc(Br)cc32)cc1` [Compound C201], the IC50 (in experiment [1]; in the experiment on A549 cells [2]) was more than 1000 nM each time. Take `Cc1cccc(S(=O)(=O)N2Cc3ccccc3-c3sccc32)c1` [Compound C39]: the IC50 (in experiment [1]; with A549 cells [2]) was more than 1000 nM in each case. As to `Cc1ccc(S(=O)(=O)N2Cc3ccccc3-c3sc(C(=O)O)cc32)cc1` [Compound C143], the IC50 in the experiment on A549 cells [2] is more than 1000 nM. The same measure, in the same setting: with `COc1ccc(S(=O)(=O)N2Cc3cccc(N)c3-c3sccc32)cc1` [Compound C132] the figure was more than 1000 nM. Same read-out and setting: with `Cc1ccc(S(=O)(=O)N2Cc3ccccc3-c3sc(C=O)cc32)cc1` [Compound C142] the figure was 456 nM. Turning to `CC(=O)O[C@H]1C(=O)[C@@]2(C)[C@H]([C@H](OC(=O)c3ccccc3)[C@]3(O)C[C@H](OC(=O)[C@H](O)[C@@H](NC(=O)c4ccccc4)c4ccccc4)C(C)=C1C3(C)C)[C@]1(OC(C)=O)CO[C@@H]1C[C@@H]2O` [paclitaxel, reference compound], the “spheroid growth, single drug” value in the experiment with HCT116 spheroids is given as “failed to grow”.

`COc1ccc(S(=O)(=O)N2Cc3cc4c(cc3-c3sccc32)OCO4)cc1` [Compound C300]: the IC50 in the experiment on A549 cells [2] was more than 1000 nM.

On to `Cc1ccc(S(=O)(=O)N2Cc3ccccc3-c3sc(-c4ccccc4)cc32)cc1` [Compound C71], for which the IC50 (in experiment [1]; with A549 cells [2]) was more than 1000 nM throughout.

Source of the values: US20200276181A1, “THIENOISOQUINOLINES AND THEIR DERIVATIVES FOR TARGETING TUBULIN, CH-TOG, AURORA A KINASE, TPX2, CDK5RAP2 AND/OR ASPM” (VALORBEC, SEC, priority 2017, published 2020).
